Experimental data reported in patent publication US4068074A, “Cephalosporin derivatives having at the 3-position of the cephem ring a heterocyclic thiomethyl group with a carboxy or sulfo group and at the 7-position of the cephem ring an α-heterocylic acylaminophenyl-acetamide group” (priority 1974, dated 1978).
Values after ≈ are worked out from the molar mass of the structure shown. Read-outs that look alike come from different tables or passages of the source.

Legend:
[1] = tested on: Proteus vulgaris OXK US; assay: MIC against bacteria (Table I), strain (1); type: cell-based; details: (1) Proteus vulgaris OXK US; read-out: MIC
Source text: (§1) Now, for illustrating the excellent pharmacological effects of the compounds of this invention, the values of MIC (γ/ml.) of the compounds against various bacteria are shown in Table 1, in which the compounds of this invention used are shown by example numbers.
(1) Proteus vulgaris OXK US

[2] = tested on: Proteus vulgaris 0X 19US; assay: MIC against bacteria (Table I), strain (2); type: cell-based; details: 0X19US
Source text: as §1
(2) Proteus vulgaris 0X 19US

[3] = tested on: Proteus mirabilis IXM OM-19; assay: MIC against bacteria (Table I), strain (3); type: cell-based; details: IXMOM19; (3) Proteus mirabilis IXM OM-19; read-out: MIC
Source text: as §1
(3) Proteus mirabilis IXM OM-19

[4] = tested on: Pseudomonas aeruginosa ATCC 8689; assay: MIC against bacteria (Table I), strain (4); type: cell-based; details: ATCC8689; (4) Pseudomonas aeruginosa ATCC 8689; read-out: MIC
Source text: as §1
(4) Pseudomonas aeruginosa ATCC 8689

[5] = tested on: Pseudomonas aeruginosa 99 (Gentamycin resistant); assay: MIC against bacteria (Table I), strain (5); type: cell-based
Source text: as §1
(5) Pseudomonas aeruginosa 99 (Gentamycin resistant)

[6] = tested on: Psuedomonas ovalis IMA 1002; assay: MIC against bacteria (Table I), strain (6); type: cell-based; details: (6) Psuedomonas ovalis IMA 1002; read-out: MIC
Source text: as §1
(6) Psuedomonas ovalis IMA 1002

[7] = tested on: Escherichia coli kauffmann 0-1; assay: MIC against bacteria (Table I), strain (7); type: cell-based; details: Escherichia coli
Source text: as §1
(7) Escherichia coli kauffmann 0-1

[8] = tested on: Klebsiella pneumoniae ATCC 10031; assay: MIC against bacteria (Table I), strain (8); type: cell-based; details: ATCC10031
Source text: as §1
(8) Klebsiella pneumoniae ATCC 10031

[9] = tested on: Salmonella typhi H901 W; assay: MIC against bacteria (Table I), strain (9); type: cell-based; details: Salmonella enterica, TYPHI
Source text: as §1
(9) Salmonella typhi H901 W

[10] = tested on: Salmonella enteritidis; assay: MIC against bacteria (Table I), strain (10); type: cell-based; details: Salmonella enterica
Source text: as §1
(10) Salmonella enteritidis

[11] = tested on: Shigella flexneri 2a 1675; assay: MIC against bacteria (Table I), strain (11); type: cell-based; details: 2A1675; (11) Shigella flexneri 2a 1675; read-out: MIC
Source text: as §1

[12] = tested on: Shigella sonnei II 37148; assay: MIC against bacteria (Table I), strain (12); type: cell-based; details: II37148; (12) Shigella sonnei II 37148; read-out: MIC
Source text: as §1

[13] = tested on: Bacillus megatherium 10778; assay: MIC against bacteria (Table I), strain (13); type: cell-based; details: (13) Bacillus megatherium 10778; read-out: MIC
Source text: as §1

[14] = tested on: Bacillus subtilis ATCC 6633; assay: MIC against bacteria (Table I), strain (14); type: cell-based; details: ATCC6633; (14) Bacillus subtilis ATCC 6633; read-out: MIC
Source text: as §1
(14) Bacillus subtilis ATCC 6633

[15] = tested on: Micrococcus flavus ATCC 10240; assay: MIC against bacteria (Table I), strain (15); type: cell-based; details: ATCC10240
Source text: as §1
(15) Micrococcus flavus ATCC 10240

[16] = tested on: Staphylococcus aureus 209P; assay: MIC against bacteria (Table I), strain (16); type: cell-based
Source text: as §1
(16) Staphylococcus aureus 209P

[17] = tested on: Staphylococcus Shimanishi; assay: MIC against bacteria (Table I), strain (17); type: cell-based
Source text: as §1
(17) Staphylococcus Shimanishi

[18] = tested on: Staphylococcus Onuma; assay: MIC against bacteria (Table I), strain (18); type: cell-based
Source text: as §1
(18) Staphylococcus Onuma

[19] = Solubility of salts in water (Table 2); type: physicochemical; details: disodium salt, water, showing pH 7.4; read-out: Solubility: disodium salt dissolved in water in an amount of
Source text: An advantage of the compounds of this invention is that the salts, for example, sodium salts of these compounds are readily soluble in water at pH of living bodies, which makes them suitable for injections at high concentration. The solubility of these compounds are illustrated in Table 2 together with a control example.

[20] = (2) Proteus vulgaris 0X 19US, read-out: MIC
[21] = (5) Pseudomonas aeruginosa 99 (Gentamycin resistant), read-out: MIC
[22] = (8) Klebsiella pneumoniae ATCC 10031, read-out: MIC
[23] = (10) Salmonella enteritidis, read-out: MIC
[24] = (16) Staphylococcus aureus 209P, read-out: MIC
[25] = (15) Micrococcus flavus ATCC 10240, read-out: MIC
[26] = (17) Staphylococcus Shimanishi, read-out: MIC
[27] = (18) Staphylococcus Onuma, read-out: MIC

Structure (SMILES) | MIC [1] [µg/mL] | MIC [2, 20] [µg/mL] | MIC [3] [µg/mL] | MIC [4] [µg/mL] | MIC [5, 21] [µg/mL] | MIC [6] [µg/mL] | MIC [7] [µg/mL] | MIC [8, 22] [µg/mL] | MIC [9] [µg/mL] | MIC [10, 23] [µg/mL] | MIC [11] [µg/mL] | MIC [12] [µg/mL] | MIC [13] [µg/mL] | MIC [14] [µg/mL] | MIC ([15]; Micrococcus flavus) [µg/mL] | MIC [16, 24] [µg/mL] | MIC ([18]; Staphylococcus) [µg/mL] | solubility [19] [mg/mL] | MIC [15, 25] [µg/mL] | MIC [17, 26] [µg/mL] | further results
O=C(O)CSc1cc(SCC2=C(C(=O)O)N3C(=O)[C@@H](NC(=O)[C@H](NC(=O)c4cnccc4O)c4ccccc4)[C@H]3SC2)ncn1 [Example 16] | < 0.09 | < 0.09 | 0.19 (≈ 0.284 µM) | 25 (≈ 37.4 µM) | 25 (≈ 37.4 µM) | 25 (≈ 37.4 µM) | 6.25 (≈ 9.35 µM) | 12.5 (≈ 18.7 µM) | 1.56 (≈ 2.33 µM) | 0.78 (≈ 1.17 µM) | 3.13 (≈ 4.68 µM) | 6.25 (≈ 9.35 µM) | 0.39 (≈ 0.583 µM) | 0.19 (≈ 0.284 µM) | 3.13 (≈ 4.68 µM) | 0.78 (≈ 1.17 µM) | 6.25 (≈ 9.35 µM) | > 200 | – | – | MIC ([17]; Staphylococcus): 6.25 µg/mL (≈ 9.35 µM)
Cc1nc(SCC2=C(C(=O)O)N3C(=O)[C@@H](NC(=O)[C@H](NC(=O)c4cnccc4O)c4ccccc4)[C@H]3SC2)sc1CC(=O)O [Example 23, 7-[D-α-(4-hydroxynicotinoylamido)-α-phenylacetamido]-3-(5-carboxymethyl-4-methylthiazol-2-yl)thiomethyl-Δ^3-cephem-4-carboxylic acid] | < 0.09 | < 0.09 | 0.19 (≈ 0.29 µM) | 12.5 (≈ 19.1 µM) | 6.25 (≈ 9.53 µM) | 12.5 (≈ 19.1 µM) | 1.56 (≈ 2.38 µM) | 6.25 (≈ 9.53 µM) | 1.56 (≈ 2.38 µM) | – | 1.56 (≈ 2.38 µM) | 3.13 (≈ 4.77 µM) | 0.39 (≈ 0.595 µM) | 0.78 (≈ 1.19 µM) | – | – | – | > 200 | 12.5 (≈ 19.1 µM) | 12.5 (≈ 19.1 µM) | MIC ([10]; ENTERITIDIS): 0.39 µg/mL (≈ 0.595 µM); MIC ([16]; Staphylococcus aureus, 209P): 3.13 µg/mL (≈ 4.77 µM); MIC [18, 27]: 12.5 µg/mL (≈ 19.1 µM)
Cc1nc(SCC2=C(C(=O)O)N3C(=O)[C@@H](NC(=O)[C@H](NC(=O)c4cnccc4O)c4ccccc4)[C@H]3SC2)sc1SCC(=O)O [Example 24, 7-[D-α-(4-hydroxynicotinoylamido)-α-phenylacetamido]-3-(5-carboxymethylthio-4-methylthiazol-2-yl)thiomethyl-Δ^3-cephem-4-carboxylic acid] | < 0.09 | < 0.09 | 0.19 (≈ 0.276 µM) | 12.5 (≈ 18.2 µM) | 6.25 (≈ 9.09 µM) | 12.5 (≈ 18.2 µM) | 3.13 (≈ 4.55 µM) | 6.25 (≈ 9.09 µM) | 1.56 (≈ 2.27 µM) | 0.78 (≈ 1.13 µM) | 1.56 (≈ 2.27 µM) | 3.13 (≈ 4.55 µM) | 0.78 (≈ 1.13 µM) | 0.39 (≈ 0.567 µM) | – | 0.78 (≈ 1.13 µM) | – | > 200 | 6.25 (≈ 9.09 µM) | 6.25 (≈ 9.09 µM) | MIC [18, 27]: 6.25 µg/mL (≈ 9.09 µM)
O=C(O)Cc1nnc(SCC2=C(C(=O)O)N3C(=O)[C@@H](NC(=O)[C@H](NC(=O)c4cnccc4O)c4ccccc4)[C@H]3SC2)s1 [Example 25, 7-[D-α-(4-hydroxynicotinoylamido)-α-phenylacetamido]-3-(5-carboxymethyl-1,3,4-thiadiazol-2-yl)thiomethyl-Δ^3-cephem-4-carboxylic acid] | < 0.09 | – | 0.39 (≈ 0.607 µM) | 12.5 (≈ 19.4 µM) | – | 12.5 (≈ 19.4 µM) | 3.13 (≈ 4.87 µM) | – | 0.39 (≈ 0.607 µM) | 0.19 (≈ 0.296 µM) | 1.56 (≈ 2.43 µM) | 6.25 (≈ 9.72 µM) | 0.39 (≈ 0.607 µM) | 0.39 (≈ 0.607 µM) | 6.25 (≈ 9.72 µM) | 0.78 (≈ 1.21 µM) | 6.25 (≈ 9.72 µM) | > 200 | – | 3.13 (≈ 4.87 µM) | MIC ([2]; Proteus vulgaris): 1.56 µg/mL (≈ 2.43 µM); MIC ([5]; Pseudomonas aeruginosa): 6.25 µg/mL (≈ 9.72 µM); MIC ([8]; Klebsiella pneumoniae): 6.25 µg/mL (≈ 9.72 µM)
